{"source": "paper PMC4674796", "about": "“Only a minority of broad-range detoxification genes respond to a variety of phytotoxins in generalist Bemisia tabaci species” (Scientific Reports, 2015)", "key": {"BtGST2 [1]": {"biological_target": "T1, BtGST2 (Bemisia tabaci, UniProt A0A9P0F9D9)", "T1 construct": "gene BEMITA_LOCUS12014", "T1 sequence (A0A9P0F9D9 1-204)": "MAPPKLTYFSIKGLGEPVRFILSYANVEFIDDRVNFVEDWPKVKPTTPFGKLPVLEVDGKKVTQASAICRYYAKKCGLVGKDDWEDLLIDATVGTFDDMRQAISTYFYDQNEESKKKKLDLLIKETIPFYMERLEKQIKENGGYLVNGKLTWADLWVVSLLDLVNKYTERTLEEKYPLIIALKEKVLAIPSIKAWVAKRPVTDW", "test": "inhibition of CDNB/GSH conjugation, absorbance at […] nm", "type": "biochemical", "details": "read-out: % inhibition at 0.5 mM"}, "BtGST2 [2]": {"biological_target": "T1, BtGST2", "test": "GSH/CDNB conjugation, absorbance at […] nm, Michaelis-Menten fit", "type": "biochemical", "details": "co-substrate GSH 2.75 mM, CDNB 0.06-3 mM; 0.1 M potassium phosphate pH 6.5, 25 °C"}}}
{"compound": "C=CCN=C=S", "note": "[AITC]", "values": [{"measurement": "inhibition at 500 µM", "setting": "BtGST2 [1]", "result": "40.9 ± 5.08", "unit": "%"}]}
{"compound": "O=[N+]([O-])c1ccc(Cl)c([N+](=O)[O-])c1", "note": "[CDNB, 1-Chloro-2,4-dinitrobenzene]", "values": [{"measurement": "Km", "setting": "BtGST2 [2]", "result": "710 ± 160", "unit": "µM"}]}
{"compound": "O=c1cc(-c2ccccc2)oc2ccccc12", "note": "[Flavone, 2-phenyl chromone]", "values": [{"measurement": "inhibition at 500 µM", "setting": "BtGST2 [1]", "result": "67.3 ± 8.65", "unit": "%"}]}
{"compound": "OCc1c[nH]c2ccccc12", "note": "[I3C]", "values": [{"measurement": "inhibition at 500 µM", "setting": "BtGST2 [1]", "result": "20.9 ± 7.99", "unit": "%"}]}
{"compound": "CN1CCC[C@H]1c1cccnc1", "note": "[Nicotine]", "values": [{"measurement": "inhibition at 500 µM", "setting": "BtGST2 [1]", "result": "6.64 ± 3.68", "unit": "%"}]}
{"compound": "O=c1c(O)c(-c2ccc(O)c(O)c2)oc2cc(O)cc(O)c12", "note": "[Quercetin hydrate]", "values": [{"measurement": "inhibition at 500 µM", "setting": "BtGST2 [1]", "result": "97.6 ± 2.43", "unit": "%"}]}
